From patent US20210346259A1, “Oral Care Compositions Comprising Dicarboxylic Acid” (The Procter & Gamble Company, priority 2020, published 2021)

Assays:
[1] = Slurry pH of enamel softening treatments; type: physicochemical; conditions: treatment as used in enamel softening, Study 1
From the text: The pH of the oral care compositions as described herein can be from about 4 to about 7, from about 4 to about 6, from about 4.5 to about 6.5, or from about 4.5 to about 5.5. The pH of a mouthrinse solution can be determined as the pH of the neat solution. The pH of a dentifrice composition can be determined as a slurry pH, which is the pH of a mixture of the dentifrice composition and water, such as a 1:4, 1:3, or 1:2 mixture of the dentifrice composition and water.

[2] = human, 1 %, pH 2.19
Protocol: The enamel softening method is used to determine the potential of oral care compositions to damage (or not to damage) dental enamel with repeated exposure.
A core of sound human enamel with a diameter of 3-4 mm was extracted from whole human teeth. The cores were mounted in dental acrylic and the surfaces were ground using 600 grit paper. Increasingly fine lapping papers were then used to polish the surface to a 1μ polish. Samples were sonicated in deionized water for 30 min. Enamel specimens were then rinsed with deionized water and wiped to remove any residual polish. Each enamel specimen was inspected and samples with large cracks or uneven calcification were discarded. […]
The artificial saliva solution of TABLE 6 was prepared on the day before the experiment. Also on the day before the experiment, the Vickers hardness of each enamel specimen was measured using a hardness indenter at three separate locations spread across the enamel surface. A 50 g load was applied for 10 seconds, and the diagonal lengths of the resulting indents were measured using a 20× magnification objective. […]
On the day following the cycling experiment, the post-cycling hardness was obtained for each specimen using a similar procedure to that described for the pre-cycling hardness measurements. […] The average change in specimen hardness with respect to treatment and its standard deviation were then determined. […]

[3] = Powder Stain Removal Model (PSRM), tea stain; conditions: pH 7
Protocol: A tea solution was prepared using 8 regular teabags (Lipton Black Tea) in 400 mL boiling water and steeping for 5 min. After letting the tea cool to 50° C. it was filtered through a Nalgene sterile filter (Thermo Scientific Nalgene Rapid flow 75 mm Filter Unit, 0.2SCFA). 10 g Hydroxyapatite Powder (HAP, Bio-Gel HTP-Gel Catalog #130-0421, Bio-Rad Laboratories Hercules, Calif.) was added and the mixture was stirred for 5 min, distributed into 12 50-mL centrifuge tubes and centrifuged for 15 min at 14,000 rpm (Lynx 6000, Thermo Fischer with Lynx F14-14X50CY rotor). Supernatant was decanted, the remaining stained HAP-powder was washed twice with water by adding 25 ml of water, vortexing, centrifuging at 14,000 rpm for 15 mins, and decanting liquid. Centrifuge tubes were placed in a convection oven overnight at 60° C. to dry stained HAP. Once dried, stained HAP was pooled and ground to a fine powder with pestle and mortar and stored in a dry dark place at room temperature.
HAP powders were treated with the treatment solutions to investigate their stain removal potential. Treatment (20 mL of a 1:4 dilution of treatment solutions above) was added to stained HAP powder (200 mg) in a 50 mL centrifuge, vortexed for 1 min, then centrifuged at 14,000 rpm for 15 min. Supernatant was decanted and the pellet was washed twice by adding 25 mL of water, vortexing, centrifuging at 14,000 rpm for 15 mins, and decanting. […]

[4] = Powder Stain Removal Model (PSRM), tea stain + FeCl3; conditions: pH 7
From the text: The PSRM is a screening technique where hydroxyapatite powder (HAP) is used as a substrate for stain accumulation (see Baig A A; Kozak K M; Cox E R et al; J Clin Dent 2002, 13:19 24). The purpose of this technique was to illustrate and quantify the stain removal properties of chemical agents used in the oral care compositions disclosed herein with respect to pH. Hydroxyapatite powder provides a large surface area to which tea chromogens adsorbed. In addition to the published PSRM a modification of the model was used where tea stain was used in conjunction with Iron Trichloride (FeCl3) to simulate stains that are more resistant to removal. Stains found in the oral cavity commonly contain Fe(III) (Tantbirojn D, Douglas W H et al Eur J Oral Sci 1998; 106,971-976). […] The magnitude of stain removal was quantified by image analysis. […] VWR BDH9234) was added under stirring. Then HAP-powder was added, powder was centrifuged, washed and dried to yield a deeply colored powder. Treatment solutions were prepared for oxalate and pyrophosphate anions. Oxalate solutions (0.34M, 3%) of different pH (4.5, 5.0, 5.5, 7) were obtained by mixing appropriate ratios of potassium oxalate (62.79 g/L Potassium Oxalate Monohydrate in water, pH-7.0) and oxalic acid solution (30.69 g Oxalic Acid/L in water, pH-1.3). Lower concentrations were obtained by further dilution with water. A pyrophosphate solution, equimolar to a 3% Oxalate solution (75.65 g/L Sodium acid pyrophosphate, pH-adjusted with IN NaOH to pH7) was used as comparison. HAP powders were treated with the treatment solutions to investigate their stain removal potential. […] Supernatant was decanted and the pellet was washed twice by adding 25 mL of water, vortexing, centrifuging at 14,000 rpm for 15 mins, and decanting. The twice washed pellet was resuspended in 30 mL water by vortexing for 1 min, then vacuum-filtered (Millipore MF Membrane Filters 8.0 um, 47 mm) to collect the powder. […] Treatments were done in triplicate. A control disk using tea-stained HAP from the same batch treated with water was prepared as well. The color of the laminated samples was measured using a color-calibrated, white-balanced digital camera and RGB values were acquired. […] The light system was equipped with Dedo lights (model number DLH2) equipped with 150 watt, 24V bulbs model number (Xenophot model number HL X64640), positioned about 30 cm apart (measured from the center of the external circular surface of one of the glass lens through which the light exits to the other) and aimed at a 45 degree angle such that the light paths. […] Stain removal was determined as change in L (brightness) vs. untreated stained HAP, calculated as ΔL=(L for treated HAP-L for the untreated stained HAP). […]

[5] = 0.250 % Active (equimolar to Oxalate Solution)
[6] = 1.250 % Active (equimolar to Oxalate Solution)
[7] = 2.5200 % Active (equimolar to Oxalate Solution)
[8] = 7.56.00 % Active (equimolar to Oxalate Solution)

O=C(O)CC(O)(CC(=O)O)C(=O)O [1% Citric Acid, citric acid]
Slurry pH [1]: 2.19 | Δ SMH (change in surface microhardness) [2]: −175.68

O=P([O-])(O)OP(=O)([O-])O.[Na+].[Na+] [Pyrophosphate Solution, Sodium acid pyrophosphate]
Tea Stain (ΔL) [3, 5]: 5.16 | Tea Stain (ΔL) [3, 6]: 5.97 | Tea Stain (ΔL) [3, 7]: 7.88 | Tea Stain (ΔL) [3, 8]: 9.85 | Tea Stain + FeCl3 (ΔL) [4, 5]: −0.97 | Tea Stain + FeCl3 (ΔL) [4, 6]: 0.02 | Tea Stain + FeCl3 (ΔL) [4, 7]: 0.77 | Tea Stain + FeCl3 (ΔL) [4, 8]: 2.88
